Assay results reported in patent US20080274057A1, “Staudinger Reaction in Imaging and Therapy and Kits for Use in Imaging and Therapy” (KONINKLIJKE PHILIPS ELECTRONICS, N.V., priority 2005, published 2008).
Where two headings read alike, the source gives them in different places.

Columns and labels:
A431 cells = details: for anti-proliferative activity (ranking): 72 hours incubation, ranking among pro-dox, pro-dox plus phosphine, and doxorubicin
Experimental: 12) Cell proliferation assay using A431 cells with prodrug 9 (pro-dox) in situ activated by triphenylphosphine.
The in vitro anti-cancer activity of prodrug 9 (pro-dox) was assessed by means of cytotoxicity assays. For these cellular experiments the A431 cell line was used. […] The addition of the prodrug in combination with phosphine should lead to a reduction in proliferation compared to the addition of pro-dox without phosphine, due to the release of doxorubicin by means of the staudinger reaction.
Cells were maintained at 37° C. in DMEM (InVitrogen), supplemented with 10% heat-inactivated fetal bovine serum and 0.05% glutamax (InVitrogen) in the presence of penicillin and streptomycin.
Doxorubicin (Toronto Research Chemicals) and pro-dox (9) were, prior to each experiment, freshly dissolved in DMF at 10 mM and subsequently serial diluted in pre-warmed culture medium. Triphenylphosphine-3,3′,3″-trisulfonic acid trisodium salt (Sigma) was dissolved in PBS at 10 mM and serial diluted in pre-warmed medium. Methylthiazolyldiphenyl-tetrazolium bromide, MTT (Sigma) was used as described by the manufacturer.
Cells were plated out in a 96 well plate (Nunc) at a density of 7500 cells/well, followed by addition of reagents the next day. After 72 hours incubation cell proliferation was assessed by means of a MTT assay. Briefly, MTT was dissolved in pre-warmed medium at 5 mg/ml, passed through a 0.22 μm filter and 50 μl was added to each well. Following an incubation period of 120 minutes the medium was gently aspirated. The formed formazan crystals were dissolved in 100 μl DMSO and the absorbance, or optical density (O.D.), was measured with a plate reader (BMG) at 560 nm. The inhibition of proliferation was determined by reporting the O.D. of the treated group (T) with the O.D. of the appropriate control group (C), and expressed as [(1-T/C)×100%].
Therefore, instead of adding the prodrug to the cell culture together with a single batch triphenylphosphine on day 2, the phosphine was added at fixed intervals from day 2 to day 4. Three phosphine dosing schemes were investigated: 5×10 μM, 5×30 μM, and 5×60 μM. The range of the concentrations used for the doxorubicin drugs was 0-0.01-0.1-0.3-1.0-10 μM.
The above phosphine-dosing scheme was compared to a single batch-dosing scheme at the same total amount of phosphine.

[1] = Activation of model azido-prodrug 4 by 3-(diphenylphosphino)benzenesulfonate (5), followed with 1H NMR
Experimental: 9) Activation of model azido-prodrug 4-azidobenzyl N-benzyl carbamate (4) by 3-(diphenylphosphino)benzenesulfonate (5) in two different media.
In DMF/H2O (3.5/1): Prodrug 4 (5.3 mg, 18.8 μmol) was dissolved in 952 μl DMF-d7 and 275 μl D2O. Phosphine 5 (12.1 mg, 33.2 μmol) was added and the reaction was followed with ^1H NMR. The reaction had run to completion within 14 hours as judged from the disappearance of the CH2 azidobenzyl signal at 4.83 ppm and the appearance of the CH2 signal of the corresponding aminobenzylalcohol (7) at 4.64 ppm.
In THF/H2O (1/1): Prodrug 4 (4.8 mg, 17.0 μmol) was dissolved in 275 μl THF-d8 and 275 μl D2O. Phosphine 5 (11.3 mg, 31.0 μmol) was added to the slightly yellow solution after which gas development was observed. The reaction was followed with ^1H NMR and had to run to 50% after 7 hours as judged from the disappearance of the CH2 benzyl signal at 4.38 ppm and the appearance of the CH2 signal of the corresponding free benzylamine (6) at 3.99 ppm.

[2] = for extent of activation reaction: 10 μM prodrug
Experimental: 11) Activation of the doxorubicin prodrug (9) followed with HPLC and LC-MS
The activation was carried out in the following way: a solution of prodrug in water or growth medium was mixed with a solution of triphenylphosphine-3,3′,3″-trisulfonic acid trisodium salt in water or growth medium. Samples were taken from the reaction mixture (at 37 C) every 2 hours and measured in the HPLC or LCMS. Several different concentrations and ratios prodrug/triphenylphosphine were used. The first activation experiment was done in water with a concentration of 100 μM for the prodrug and 200 μM for the phosphine, and monitored with HPLC.
The second activation was done at a 10-fold lower concentration, 10 μM for the prodrug and 20 μM for the phosphine, and monitored with LCMS.
The third and last activation was done in cell growth medium at 10 μM prodrug. […] During this experiment a fresh portion (60 μM) triphenylphosphine was added to the mixture twice a day.

| Compound | anti-proliferative activity (ranking) (A431 cells; MTT) | activity relative to pro-dox (A431 cells; 72 hours, MTT) | time until reaction had run to completion ([1]; DMF/H2O (3.5/1), prodrug 18.8 μmol, phosphine 5 33.2 μmol) | extent of reaction (release of free benzylamine) ([1]; THF/H2O (1/1), after 7 hours, prodrug 17.0 μmol, phosphine 5 31.0 μmol) | extent of activation reaction ([2]; 20 μM phosphine, after 24 hours, LCMS) | extent of activation reaction ([2]; cell growth medium, fresh 60 μM triphenylphosphine added twice a day, after 8 hours) | time until reaction was complete ([2]; water, 37 C, 100 μM prodrug, 200 μM phosphine, HPLC) | doxorubicin formed ([2]; water, 37 C, 100 μM prodrug, 200 μM phosphine, after 8 hours, HPLC) | increase of activity over pro-dox alone (A431 cells; 72 hours, MTT, pro-dox with 60 μM repetitive dose (5×60 μM) of phosphine) | activation by a single dose of phosphine compared with sequential additions (A431 cells; identical total phosphine amounts) |
| --- | --- | --- | --- | --- | --- | --- | --- | --- | --- | --- |
| COc1cccc2c1C(=O)c1c(O)c3c(c(O)c1C2=O)C[C@@](O)(C(=O)CO)C[C@@H]3O[C@H]1C[C@H](N)[C@H](O)[C@H](C)O1 [Doxorubicin, reference compound] | highest activity | 2 orders of magnitude |  |  |  |  |  |  |  |  |
| [N-]=[N+]=Nc1ccc(COC(=O)NCc2ccccc2)cc1 [prodrug 4, 4-azidobenzyl N-benzyl carbamate] |  |  | ≤ 14 h | 50% |  |  |  |  |  |  |
| Azidobenzyl carbamate Doxorubicin [prodrug 9] | lowest anti-proliferative activity |  |  |  | approximately 30% | 85% | 20 h | 15% | 33 fold | not nearly as effective |
